{
  "source": "patent US20110201623A1",
  "about": "“Crystalline Form Of A Cyclopropyl Benzamide Derivative” (priority 2010, published 2011)",
  "key": {"hH3 receptors": {"molecular_target": "hH3 receptors (Homo sapiens, UniProt Q9Y5N1)", "sequence (Q9Y5N1 whole entry)": "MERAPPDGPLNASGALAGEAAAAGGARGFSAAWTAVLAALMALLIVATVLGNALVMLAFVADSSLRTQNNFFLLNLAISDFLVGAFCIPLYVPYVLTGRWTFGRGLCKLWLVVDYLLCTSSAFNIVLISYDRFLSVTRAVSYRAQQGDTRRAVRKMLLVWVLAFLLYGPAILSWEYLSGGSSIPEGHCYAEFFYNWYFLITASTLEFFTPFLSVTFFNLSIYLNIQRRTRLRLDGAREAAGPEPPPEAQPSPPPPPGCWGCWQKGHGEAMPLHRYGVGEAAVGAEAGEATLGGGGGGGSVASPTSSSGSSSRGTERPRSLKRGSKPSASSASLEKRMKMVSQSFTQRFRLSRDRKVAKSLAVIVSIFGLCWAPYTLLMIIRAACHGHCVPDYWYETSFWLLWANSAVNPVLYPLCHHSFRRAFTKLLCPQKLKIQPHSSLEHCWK", "assay": "[35S]GTPγS binding assay, antagonist mode (RαMH EC80)", "type": "biochemical", "details": "RαMH at EC80 (30 nmol/L for hH3), membranes, SPA; read-out: IC50 equivalent of pIC50, inhibition of H3 agonist R-α-Methyl-Histamine stimulated [35S]GTPγS binding (converted)", "protocol": "Guanosine 5′-O-(3-[^35S]thio)triphosphate [GTPgS] Binding Assay\n[^35S]GTPγS binding assay was performed in a buffer consisting of 20 mmol/L Hepes, 100 mmol/L NaCl, 10 mmol/L MgCl2, 3 μg/mL saponine and 10 μmol/L GDP. The pH was set at 7.4 at room temperature. Liquid handling robots were used to prepare, in drug plates, 10 points dose response curves of the compound of formula (I) (3-fold serial dilutions, starting at 1 μmol/L for hH3 receptors and 10 μmol/L for rH3 receptors). The assay, performed in 96-well plates, consisted of 120 μL, containing 20 μL of RαMH (EC80, antagonist mode), 20 μL the compound of formula (I) at varying concentrations, 20 μL of the tracer [^35S]GTPγS (60000 dpm/well, 0.2 nmol/L) and finally 60 μL of membranes (10 μg of protein/well for hH3) mix is added to start the reaction. Membranes, SPA beads (125 μg/well) and GDP were mixed together and incubated for 30 minutes at room temperature prior to the start of the assay. Eight wells were used to define baseline and RαMH EC80 (30 nmol/L for hH3 receptors) define the positive control. Plates were then mixed (2 minutes) on an orbital mixer, incubated 60 minutes at room temperature, and then read on a Trilux 384™ counter."}, "[1]": {"molecular_target": "human H3 receptor (445 aa) (Homo sapiens, UniProt Q9Y5N1)", "sequence (Q9Y5N1 whole entry)": "as above", "assay": "Human histamine H3 binding assay with the agonist radioligand [3H]-N-α-methylhistamine", "details": "membranes, SPA, 1.5 nmol/L radioligand, pH 7.4, room temperature; read-out: IC50 equivalent of pIC50, inhibition of specific binding of [3H]-N-α-Methyl Histamine to the human H3 receptor (converted)", "protocol": "Human Histamine H3 Binding Assay with the Agonist Radioligand [^3H]-N-a-Methylhistamine\nThe H3 binding assay was used to evaluate the ability of a compound of formula (I) to inhibit [^3H]-N-a-methylhistamine under the conditions as described below: All binding assays were performed in a buffer consisting of 20 mmol/L Hepes, 100 mmol/L NaCl. The pH was set at 7.4 at room temperature. Liquid handling robots were used to prepare, in drug plates, 10 points dose response curves of the compound of formula (I) (3-fold serial dilutions, starting at 10 μmol/L). The assay, performed in 96-well plates, consisted of 100 μL, containing 20 μL of buffer alone for total binding (column #1), 20 μL of imetit (5×) for the non specific binding (column #2), 20 μL of the compound of formula (I) (5×) at varying concentrations (column #3 to #12), plus 20 μL of [3H]-N-a-Methylhistamine (25 000 dpm/well, 1.5 nmol/L) in all wells and finally 60 μL of membranes (20 μg of protein/well) mix is added to start the reaction. Membranes and SPA beads (1000 μg/well) were mixed together and incubated for 30 minutes at room is temperature prior to the start of the assay. […] Plates were then mixed on an orbital mixer, incubated 90 minutes at room temperature, and then read on a Trilux 384™ counter."}},
  "data": [
    {"smiles": "NC(=O)c1ccc([C@H]2C[C@@H]2C(=O)N2CCN(C3CCC3)CC2)cc1", "note": "[Compound (I), 4-{(1S,2S)-2-[(4-cyclobutylpiperazin-1-yl)carbonyl]-cyclopropyl}-benzamide]", "values": [
      {"measurement": "IC50", "setting": "hH3 receptors", "result": 3, "unit": "nM"},
      {"measurement": "IC50", "setting": "[1]", "result": 13, "unit": "nM"}
    ]}
  ]
}
